Where two headings read alike, the source gives them in different places.
How the values were obtained:
TMD8 = test: CCK-8 proliferation, TMD8; type: cell-based; conditions: Homo sapiens, read-out: Inhibitory activity (IC50) on tumor cell proliferation, TMD8
Procedure: (§1) The tumor cells used herein were cultured in a cell culture medium listed in table A1 at 37°C in an incubator with 5% CO2. Prior to experimentation, all cell lines used were correctly identified by STR profiling, and tested negative for mycoplasma contamination using a mycoplasma detection kit through routine screenings. Table A1. Tumor cells and cell culture medium used in the present disclosure
(§2) IC50 values of the compounds of the present disclosure (including the compounds in Table 1, and compounds of examples) were measured using the Meilun Cell Counting Kit-8 kit from Dalian Meilun Biotech Co., Ltd. Assay details are as follows: tumor cells were seeded in a 96-well plate at a density listed in Table A2. After 24h, 100 µL of the inoculated cells were treated with 0.5µL of the compounds of the present disclosure (including the compounds in Tables 1 and 2, and compounds of examples) at 10 different successively decreasing concentrations (starting at the highest concentration of 10µM; 5-fold serial dilutions). After the cells were treated with the compounds of the present disclosure for a period of time, the cell viability detection reagent was added to the culture medium for cell viability assessment according to the instructions provided with the CCK-8 kit. […] The growth inhibition of the compounds of the present disclosure on cells was plotted by Prism Graphpad software, and the IC50 values of the compounds of the present disclosure were calculated therefrom. […] Seeding protocol and treatment time for tumor cells

SU-DHL-6 = test: CCK-8 proliferation, SU-DHL-6; type: cell-based; conditions: Homo sapiens, read-out: Inhibitory activity (IC50) on tumor cell proliferation, SU-DHL-6
Procedure: as §1, §2

[1] = target: T1, human Cereblon WT GST-tagged protein (Homo sapiens, UniProt Q96SW2); test: CRBN binding, HTRF (CEREBLON BINDING kit); conditions: for inhibition at 0.5 µM: read-out: Inhibition rate (%) at 0.5µM; for inhibition at 2 µM: read-out: Inhibition rate (%) at 2 µM
T1 construct: purchased CISBIO 64BDCRBNPEH
T1 sequence (Q96SW2 whole entry): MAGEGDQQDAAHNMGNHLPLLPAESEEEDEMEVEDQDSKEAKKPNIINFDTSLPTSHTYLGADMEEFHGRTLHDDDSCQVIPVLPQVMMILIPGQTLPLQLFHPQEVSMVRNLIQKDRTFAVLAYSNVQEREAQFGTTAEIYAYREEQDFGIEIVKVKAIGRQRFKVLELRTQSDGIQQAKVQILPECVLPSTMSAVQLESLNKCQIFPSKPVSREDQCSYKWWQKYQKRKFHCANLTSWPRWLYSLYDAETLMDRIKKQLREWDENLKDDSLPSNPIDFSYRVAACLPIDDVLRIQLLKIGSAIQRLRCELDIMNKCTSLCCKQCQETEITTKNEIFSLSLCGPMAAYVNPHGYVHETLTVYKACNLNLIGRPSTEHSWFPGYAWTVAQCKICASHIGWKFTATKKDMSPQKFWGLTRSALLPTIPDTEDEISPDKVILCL
Summary of the method: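 Competitive HTRF: GST-tagged human WT Cereblon mixed with compound, Thalidomide-Re tracer and GST Eu antibody, incubated 3 h at room temperature. Signals read at 620 and 665 nm.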

CDK9 = target: T2, CDK9 (Homo sapiens, UniProt P50750); test: Western blot degradation of CDK9 (MDA-MB-231 Cell); type: cell-based; conditions: Table D13
T2 construct: evaluate the effects of the compounds of the present disclosure on the expression of target proteins in cells; endogenous in cells; host or cells: MDA-MB-231
T2 sequence (P50750 whole entry): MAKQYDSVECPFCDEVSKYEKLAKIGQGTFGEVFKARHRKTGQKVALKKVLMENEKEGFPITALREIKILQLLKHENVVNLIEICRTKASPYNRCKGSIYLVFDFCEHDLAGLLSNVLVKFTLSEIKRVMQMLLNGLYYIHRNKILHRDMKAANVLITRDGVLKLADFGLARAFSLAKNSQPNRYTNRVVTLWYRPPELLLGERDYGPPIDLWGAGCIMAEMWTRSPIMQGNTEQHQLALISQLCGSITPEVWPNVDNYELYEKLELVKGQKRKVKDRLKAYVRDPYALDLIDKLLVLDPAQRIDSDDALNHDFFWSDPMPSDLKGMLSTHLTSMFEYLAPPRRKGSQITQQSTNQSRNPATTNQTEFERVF
Procedure: Conventional Western blot assay was performed to evaluate the effects of the compounds of the present disclosure on the expression of target proteins in cells.
(1) Cell Seeding and Protein Harvesting: The selected cells were processed according to the cell seeding procedure and protein harvesting procedure in Table III-2. Table III-2 Cell Seeding and Protein Harvesting Procedures
(2) To the collected supernatant, 5X SDS sample loading buffer was added, followed by denaturation at 95°C for 5 minutes. The denatured samples were then separated by SDS-PAGE electrophoresis on a polyacrylamide gel. Proteins were transferred to a nitrocellulose membrane (0.45 µm NC membrane), blocked with blocking buffer at room temperature for 1 hour, and subjected to antibody incubation and development procedures according to the antibody manufacturer's instructions (Cell Signaling Technology).
Half-Maximal Degradation Concentration value (the drug concentration required for degrading proteins by 50%, abbreviated as DC50) reads method: comparing the grayscale values of Western blot bands from drug-treated samples with those from blank DMSO-treated controls, and identifying the drug concentration range at which the grayscale value is half that of the DMSO-treated control bands.
DC50 values can be calculated using ImageJ software to measure grayscale values of Western blot bands from drug-treated samples. The concentration-response curve is fitted to estimate the drug concentration corresponding to half the grayscale value.
Target protein remaining (%) refers to the percentage of target protein remaining in hPBMC cells after treatment with protein degrader compounds.
Calculation method for target protein remaining (%): Use ImageJ software to measure grayscale values of Western blot bands from drug (protein degrader)-treated samples. The grayscale value of drug-treated bands is divided by that of internal control protein bands, and the resulting quotient is normalized to obtain the relative percentage of remaining target protein after protein degrader treatment.
Target protein degradation rate (%) = 100% - target protein remaining (%).

BXPC-3 = test: CCK-8 proliferation, BXPC-3; type: cell-based; conditions: Homo sapiens, 96 hours, read-out: Inhibitory activity (IC50) on tumor cell proliferation, BXPC-3
Procedure: as §1, §2

H520 = test: CCK-8 proliferation, H520; type: cell-based; conditions: Homo sapiens, NCI-H520, 96 hours, read-out: Inhibitory activity (IC50) on tumor cell proliferation, H520
Procedure: as §1, §2

THP-1 = test: CCK-8 proliferation, THP-1; type: cell-based; conditions: Homo sapiens, 72 hours, read-out: Inhibitory activity (IC50) on tumor cell proliferation, THP-1
Procedure: as §1, §2

MGC-803 = test: CCK-8 proliferation, MGC-803 (heads: MGC80-3, MGC803); type: cell-based, Human; conditions: Homo sapiens, MGC-803; CCK-8; 72 hours; read-out: Inhibitory activity (IC50) on tumor cell proliferation, MGC80-3
Summary of the method: (§3)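 CCK-8 viability readout; IC50 from growth-inhibition curve fitting. Cells plated, dosed 24h later with a 10-point series, top 10µM, 5-fold steps. Culture at 37°C, 5% CO2.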

DU-145 = test: CCK-8 proliferation, DU-145; type: cell-based; conditions: Homo sapiens, 96 hours, read-out: Inhibitory activity (IC50) on tumor cell proliferation, DU-145
Procedure: as §1, §2

SU-DHL-4 = test: CCK-8 proliferation, SU-DHL-4; type: cell-based; conditions: Homo sapiens, 72 hours, read-out: Inhibitory activity (IC50) on tumor cell proliferation, SU-DHL-4
Procedure: as §1, §2

CCRF-CEM = test: CCK-8 proliferation, CCRF-CEM; type: cell-based, Human; conditions: Homo sapiens, CCRF-CEM; CCK-8; 96 hours; read-out: Inhibitory activity (IC50) on tumor cell proliferation, CCRF-CEM
Summary of the method: as §3

Jurkat = test: CCK-8 proliferation, Jurkat; type: cell-based, Human; conditions: Homo sapiens, Jurkat; CCK-8; 96 hours; read-out: Inhibitory activity (IC50) on tumor cell proliferation, Jurkat
Summary of the method: as §3

MM.1R = test: CCK-8 proliferation, MM.1R; type: cell-based; conditions: 72 h, read-out: Inhibitory activity (IC50) on tumor cell proliferation, MM.1R
Summary of the method: as §3

PC-9 = test: CCK-8 proliferation, PC-9; type: cell-based, Human; conditions: Homo sapiens, PC-9, 96 h, read-out: Inhibitory activity (IC50) on tumor cell proliferation, PC-9
Summary of the method: as §3

H2228 = test: CCK-8 proliferation, NCI-H2228 (H2228); type: cell-based; conditions: Homo sapiens, NCI-H2228, 96 h, read-out: Inhibitory activity (IC50) on tumor cell proliferation, H2228
Summary of the method: as §3

H1975 = test: CCK-8 proliferation, NCI-H1975 (H1975); type: cell-based, Human; conditions: Homo sapiens, NCI-H1975, 96 h, read-out: Inhibitory activity (IC50) on tumor cell proliferation, H1975
Summary of the method: as §3

SW620 = test: CCK-8 proliferation, SW620; type: cell-based; conditions: Homo sapiens, SW-620, 96 h, read-out: Inhibitory activity (IC50) on tumor cell proliferation, SW620
Summary of the method: as §3

Row | Structure (SMILES) | IC50 (BXPC-3) [µM] | IC50 (H520) [µM] | IC50 (THP-1) [µM] | IC50 (MGC-803) [µM] | IC50 (TMD8; TMD8, CCK-8, 72 hours) [µM] | IC50 (SU-DHL-6; SU-DHL-6, CCK-8, 72 hours) [µM] | also measured
1 | Nc1ncnc2c1c(-c1ccc(Oc3ccccc3)cc1)nn2C1CCN(Cc2ccc(C3CCC(=O)NC3=O)c(F)c2)CC1 (centres unmarked) [GT-03508, 3-(4-((4-(4-amino-3-(4-phenoxyphenyl)-1H-pyrazolo[3,4-d]pyrimidin-1-yl)piperidin-1-yl)methyl)-2-fluorophenyl)piperidine-2,6-dione] | – | – | – | – | 0.1 to 0.5 | 0.5 to 1 | inhibition at 0.5 µM ([1]; Table II-2, CRBN binding screening, HTRF, at 0.5µM): 30 to 40%; inhibition at 2 µM ([1]; Table II-2, CRBN binding screening, HTRF, at 2 µM): 60 to 80%
2 | Nc1ncnc2c1c(-c1ccc(Oc3ccccc3)cc1)nn2[C@H]1CCN(Cc2ccc(C3CCC(=O)NC3=O)c(F)c2)C[C@H]1F (stereo partly drawn) [GT-03513, 3-(4-(((3R,4S)-4-(4-amino-3-(4-phenoxyphenyl)-1H-pyrazolo[3,4-d]pyrimidin-1-yl)-3-fluoropiperidin-1-yl)methyl)-2-fluorophenyl)piperidine-2,6-dione] | – | – | – | – | 0.1 to 0.5 | 0.1 to 0.5 | –
3 | N#CC1(CNc2nc(-c3cc(NC4CCN(Cc5ccc(C6CCC(=O)NC6=O)cc5)CC4)ncc3Cl)cs2)CCOCC1 (centres unmarked) [GT-04074, 4-(((4-(5-chloro-2-((1-(4-(2,6-dioxopiperidin-3-yl)benzyl)piperidin-4-yl)amino)pyridin-4-yl)thiazol-2-yl)amino)methyl)tetrahydro-2H-pyran-4-carbonitrile] | – | – | – | – | – | – | Degradation of substrate protein CDK9 (substrate protein remaining %) (CDK9): A (A is defined as 0% ≤ substrate protein remaining % ≤ 80%)
4 | O=C(NC1CCNCC1)c1[nH]ncc1NC(=O)c1c(Cl)cccc1Cl [AT7519, reference compound] | – | – | – | – | 0.5 to 1 | – | IC50 (SU-DHL-4): 0.1 to 0.5 µM; IC50 (DU-145): 0.5 to 1 µM; IC50 (CCRF-CEM): 0.5 to 1 µM; IC50 (Jurkat): 0.1 to 0.5 µM
5 | Nc1ncnc2c1c(-c1ccc(Oc3ccccc3)cc1)nn2C1CCN(Cc2ccc(C3CCC(=O)NC3=O)cc2)CC1 (centres unmarked) [GT-03507, 3-(4-((4-(4-amino-3-(4-phenoxyphenyl)-1H-pyrazolo[3,4-d]pyrimidin-1-yl)piperidin-1-yl)methyl)phenyl)piperidine-2,6-dione] | – | – | – | – | 0.1 to 0.5 | 0.5 to 1 | inhibition at 0.5 µM [1]: 30 to 40%; inhibition at 2 µM [1]: 80 to 100%
6 | C=CC(=O)N1CCC[C@@H](n2nc(-c3ccc(Oc4ccccc4)cc3)c3c(N)ncnc32)C1 [ibrutinib, Ibrutinib, reference compound] | – | – | – | – | – | – | IC50 (TMD8; TMD8, 72 h): > 10 µM; IC50 (MM.1R): > 10 µM; IC50 (SU-DHL-6; SU-DHL-6, 72 h): 0.1 to 0.5 µM; IC50 (PC-9): 0.1 to 0.5 µM; IC50 (H2228): > 10 µM; IC50 (H1975): 0.5 to 1 µM; IC50 (SW620): > 10 µM
7 | Cn1ncc(-c2nc(NC3CCN(Cc4ccc(C5CCC(=O)NC5=O)cc4)CC3)ncc2Cl)c1CC1CC1 (centres unmarked) [GT-04050, 3-(4-((4-((5-chloro-4-(5-(cyclopropylmethyl)-1-methyl-1H-pyrazol-4-yl)pyrimidin-2-yl)amino)piperidin-1-yl)methyl)phenyl)piperidine-2,6-dione] | – | – | – | – | – | – | Degradation of substrate protein CDK9 (substrate protein remaining %) (CDK9): A (A is defined as 0% ≤ substrate protein remaining % ≤ 80%); IC50 (DU-145): 0.01 to 0.05 µM; IC50 (Jurkat): 0.1 to 0.5 µM
8 | Nc1ncnc2c1c(-c1ccc(Oc3ccccc3)cc1)nn2[C@H]1CCN(Cc2ccc(C3CCC(=O)NC3=O)cc2)C[C@H]1F (stereo partly drawn) [GT-03542, 3-(4-(((3R,4S)-4-(4-amino-3-(4-phenoxyphenyl)-1H-pyrazolo[3,4-d]pyrimidin-1-yl)-3-fluoropiperidin-1-yl)methyl)phenyl)piperidine-2,6-dione] | – | – | – | – | 0.1 to 0.5 | 0.1 to 0.5 | inhibition at 0.5 µM [1]: 20 to 30%; inhibition at 2 µM [1]: 80 to 100%

Continued, in another order:

Row | IC50 (BXPC-3) [µM] | IC50 (H520) [µM] | IC50 (THP-1) [µM] | IC50 (MGC-803) [µM] | Structure (SMILES) | IC50 (TMD8; TMD8, CCK-8, 72 hours) [µM] | IC50 (SU-DHL-6; SU-DHL-6, CCK-8, 72 hours) [µM] | also measured
9 | 0.1 to 0.5 | 0.5 to 1 | 0.5 to 1 | 0.1 to 0.5 | Cc1ccc(-c2c(C)noc2C)cc1N(CC1CCN(Cc2ccc(N3CCC(=O)NC3=O)cc2)CC1)c1ccc(C2(C#N)CC2)cc1 [GT-04844, 1-(4-((5-(3,5-dimethylisoxazol-4-yl)-2-methylphenyl)((1-(4-(2,4-dioxotetrahydropyrimidin-1(2H)-yl)benzyl)piperidin-4-yl)methyl)amino)phenyl)cyclopropane-1-carbonitrile] | – | – | –
10 | > 10 | > 10 | > 10 | > 10 | C[C@]12CC[C@H](O)CC1=CC[C@@H]1[C@@H]2CC[C@]2(C)C(c3cccnc3)=CC[C@@H]12 [abiraterone] | – | – | IC50 (DU-145): > 10 µM
11 | 0.1 to 0.5 | 0.5 to 1 | 0.5 to 1 | 0.5 to 1 | Cc1ccc(-c2c(C)noc2C)cc1N(CC1CCN(Cc2ccc(N3CCC(=O)NC3=O)cc2F)CC1)c1ccc(C2(C#N)CC2)cc1 [GT-04973, 1-(4-((5-(3,5-dimethylisoxazol-4-yl)-2-methylphenyl)((1-(4-(2,4-dioxotetrahydropyrimidin-1(2H)-yl)-2-fluorobenzyl)piperidin-4-yl)methyl)amino)phenyl)cyclopropane-1-carbonitrile] | – | – | –
12 | 0.1 to 0.5 | 0.5 to 1 | 0.5 to 1 | 0.1 to 0.5 | Cc1ccc(-c2c(C)noc2C)cc1N(CC1CCN(Cc2ccc(N3CCC(=O)NC3=O)c(F)c2)CC1)c1ccc(C2(C#N)CC2)cc1 [GT-04843, 1-(4-((5-(3,5-dimethylisoxazol-4-yl)-2-methylphenyl)((1-(4-(2,4-dioxotetrahydropyrimidin-1(2H)-yl)-3-fluorobenzyl)piperidin-4-yl)methyl)amino)phenyl)cyclopropane-1-carbonitrile] | – | – | –
